Data from paper PMC11284792, “Backbone-Determined Antiarrhythmic Structure–Activity Relationships for a Mirror Image, Oligomeric Depsipeptide Natural Product” (Journal of Medicinal Chemistry, 2024).
Where two headings read alike, the source gives them in different places.

Key:
RyR2 = target: T1, RyR2 (Mus musculus, UniProt E9Q401); settings: 25 μM drug, normalized to vehicle (DMSO), mean ± standard deviation, ref Johnston et al. ACS Med. Chem. Lett., 2022, 13(11), 1755–1762, cited from earlier work; for Normalized Calcium Leak: CSV supplement, ent-verticilide and Series 1; for Calcium spark Amplitude (normalized to vehicle) / Calcium spark Leak (normalized to vehicle) / Calcium spark Mass (normalized to vehicle) / Calcium spark Frequency (normalized to vehicle): Supplement Table 1; for Calcium spark Amplitude (normalized to vehicle) / Calcium spark Leak (normalized to vehicle) / Calcium spark Mass (normalized to vehicle): permeabilized murine cardiomyocytes; for Calcium spark Frequency (normalized to vehicle): permeabilized murine left ventricular myocytes, 15 min incubation
T1 construct: ventricular cardiomyocytes were isolated from C57Bl/6J mice, adhered to laminin-coated glass bottom culture dishes, permeabilized with saponin; endogenous in cells; host or cells: left ventricular cardiomyocytes freshly isolated from C57BL/6J mice, saponin-permeabilized
Method: Supplement jm4c00923_si_002.csv, table | column: Normalized Calcium Leak || page 10: Johnston et al. Supporting Information mouse variability provided by Sikkel et al.5 Bonferroni-adjusted P values are reported in the figure legends. A cutoff value of 0.05 was used as the threshold to reject the null hypothesis. Safety: No unexpected or unusually high safety hazards were encountered. Biological Experiment Data: Calcium spark parameters For all series, assay is run with 25 μM solution of drug. Values are normalized to the vehicle (DMSO) condition and reported as mean ± standard deviation. Statistical comparisons were made using a hierarchical clustering model with Bonf ...

[1] = amide bond, 24-membered ring, 3 steps
[2] = the molecule shown is the open-chain precursor
[3] = the molecule shown is the open-chain precursor, PyBOP

T1 sequence (E9Q401 whole entry): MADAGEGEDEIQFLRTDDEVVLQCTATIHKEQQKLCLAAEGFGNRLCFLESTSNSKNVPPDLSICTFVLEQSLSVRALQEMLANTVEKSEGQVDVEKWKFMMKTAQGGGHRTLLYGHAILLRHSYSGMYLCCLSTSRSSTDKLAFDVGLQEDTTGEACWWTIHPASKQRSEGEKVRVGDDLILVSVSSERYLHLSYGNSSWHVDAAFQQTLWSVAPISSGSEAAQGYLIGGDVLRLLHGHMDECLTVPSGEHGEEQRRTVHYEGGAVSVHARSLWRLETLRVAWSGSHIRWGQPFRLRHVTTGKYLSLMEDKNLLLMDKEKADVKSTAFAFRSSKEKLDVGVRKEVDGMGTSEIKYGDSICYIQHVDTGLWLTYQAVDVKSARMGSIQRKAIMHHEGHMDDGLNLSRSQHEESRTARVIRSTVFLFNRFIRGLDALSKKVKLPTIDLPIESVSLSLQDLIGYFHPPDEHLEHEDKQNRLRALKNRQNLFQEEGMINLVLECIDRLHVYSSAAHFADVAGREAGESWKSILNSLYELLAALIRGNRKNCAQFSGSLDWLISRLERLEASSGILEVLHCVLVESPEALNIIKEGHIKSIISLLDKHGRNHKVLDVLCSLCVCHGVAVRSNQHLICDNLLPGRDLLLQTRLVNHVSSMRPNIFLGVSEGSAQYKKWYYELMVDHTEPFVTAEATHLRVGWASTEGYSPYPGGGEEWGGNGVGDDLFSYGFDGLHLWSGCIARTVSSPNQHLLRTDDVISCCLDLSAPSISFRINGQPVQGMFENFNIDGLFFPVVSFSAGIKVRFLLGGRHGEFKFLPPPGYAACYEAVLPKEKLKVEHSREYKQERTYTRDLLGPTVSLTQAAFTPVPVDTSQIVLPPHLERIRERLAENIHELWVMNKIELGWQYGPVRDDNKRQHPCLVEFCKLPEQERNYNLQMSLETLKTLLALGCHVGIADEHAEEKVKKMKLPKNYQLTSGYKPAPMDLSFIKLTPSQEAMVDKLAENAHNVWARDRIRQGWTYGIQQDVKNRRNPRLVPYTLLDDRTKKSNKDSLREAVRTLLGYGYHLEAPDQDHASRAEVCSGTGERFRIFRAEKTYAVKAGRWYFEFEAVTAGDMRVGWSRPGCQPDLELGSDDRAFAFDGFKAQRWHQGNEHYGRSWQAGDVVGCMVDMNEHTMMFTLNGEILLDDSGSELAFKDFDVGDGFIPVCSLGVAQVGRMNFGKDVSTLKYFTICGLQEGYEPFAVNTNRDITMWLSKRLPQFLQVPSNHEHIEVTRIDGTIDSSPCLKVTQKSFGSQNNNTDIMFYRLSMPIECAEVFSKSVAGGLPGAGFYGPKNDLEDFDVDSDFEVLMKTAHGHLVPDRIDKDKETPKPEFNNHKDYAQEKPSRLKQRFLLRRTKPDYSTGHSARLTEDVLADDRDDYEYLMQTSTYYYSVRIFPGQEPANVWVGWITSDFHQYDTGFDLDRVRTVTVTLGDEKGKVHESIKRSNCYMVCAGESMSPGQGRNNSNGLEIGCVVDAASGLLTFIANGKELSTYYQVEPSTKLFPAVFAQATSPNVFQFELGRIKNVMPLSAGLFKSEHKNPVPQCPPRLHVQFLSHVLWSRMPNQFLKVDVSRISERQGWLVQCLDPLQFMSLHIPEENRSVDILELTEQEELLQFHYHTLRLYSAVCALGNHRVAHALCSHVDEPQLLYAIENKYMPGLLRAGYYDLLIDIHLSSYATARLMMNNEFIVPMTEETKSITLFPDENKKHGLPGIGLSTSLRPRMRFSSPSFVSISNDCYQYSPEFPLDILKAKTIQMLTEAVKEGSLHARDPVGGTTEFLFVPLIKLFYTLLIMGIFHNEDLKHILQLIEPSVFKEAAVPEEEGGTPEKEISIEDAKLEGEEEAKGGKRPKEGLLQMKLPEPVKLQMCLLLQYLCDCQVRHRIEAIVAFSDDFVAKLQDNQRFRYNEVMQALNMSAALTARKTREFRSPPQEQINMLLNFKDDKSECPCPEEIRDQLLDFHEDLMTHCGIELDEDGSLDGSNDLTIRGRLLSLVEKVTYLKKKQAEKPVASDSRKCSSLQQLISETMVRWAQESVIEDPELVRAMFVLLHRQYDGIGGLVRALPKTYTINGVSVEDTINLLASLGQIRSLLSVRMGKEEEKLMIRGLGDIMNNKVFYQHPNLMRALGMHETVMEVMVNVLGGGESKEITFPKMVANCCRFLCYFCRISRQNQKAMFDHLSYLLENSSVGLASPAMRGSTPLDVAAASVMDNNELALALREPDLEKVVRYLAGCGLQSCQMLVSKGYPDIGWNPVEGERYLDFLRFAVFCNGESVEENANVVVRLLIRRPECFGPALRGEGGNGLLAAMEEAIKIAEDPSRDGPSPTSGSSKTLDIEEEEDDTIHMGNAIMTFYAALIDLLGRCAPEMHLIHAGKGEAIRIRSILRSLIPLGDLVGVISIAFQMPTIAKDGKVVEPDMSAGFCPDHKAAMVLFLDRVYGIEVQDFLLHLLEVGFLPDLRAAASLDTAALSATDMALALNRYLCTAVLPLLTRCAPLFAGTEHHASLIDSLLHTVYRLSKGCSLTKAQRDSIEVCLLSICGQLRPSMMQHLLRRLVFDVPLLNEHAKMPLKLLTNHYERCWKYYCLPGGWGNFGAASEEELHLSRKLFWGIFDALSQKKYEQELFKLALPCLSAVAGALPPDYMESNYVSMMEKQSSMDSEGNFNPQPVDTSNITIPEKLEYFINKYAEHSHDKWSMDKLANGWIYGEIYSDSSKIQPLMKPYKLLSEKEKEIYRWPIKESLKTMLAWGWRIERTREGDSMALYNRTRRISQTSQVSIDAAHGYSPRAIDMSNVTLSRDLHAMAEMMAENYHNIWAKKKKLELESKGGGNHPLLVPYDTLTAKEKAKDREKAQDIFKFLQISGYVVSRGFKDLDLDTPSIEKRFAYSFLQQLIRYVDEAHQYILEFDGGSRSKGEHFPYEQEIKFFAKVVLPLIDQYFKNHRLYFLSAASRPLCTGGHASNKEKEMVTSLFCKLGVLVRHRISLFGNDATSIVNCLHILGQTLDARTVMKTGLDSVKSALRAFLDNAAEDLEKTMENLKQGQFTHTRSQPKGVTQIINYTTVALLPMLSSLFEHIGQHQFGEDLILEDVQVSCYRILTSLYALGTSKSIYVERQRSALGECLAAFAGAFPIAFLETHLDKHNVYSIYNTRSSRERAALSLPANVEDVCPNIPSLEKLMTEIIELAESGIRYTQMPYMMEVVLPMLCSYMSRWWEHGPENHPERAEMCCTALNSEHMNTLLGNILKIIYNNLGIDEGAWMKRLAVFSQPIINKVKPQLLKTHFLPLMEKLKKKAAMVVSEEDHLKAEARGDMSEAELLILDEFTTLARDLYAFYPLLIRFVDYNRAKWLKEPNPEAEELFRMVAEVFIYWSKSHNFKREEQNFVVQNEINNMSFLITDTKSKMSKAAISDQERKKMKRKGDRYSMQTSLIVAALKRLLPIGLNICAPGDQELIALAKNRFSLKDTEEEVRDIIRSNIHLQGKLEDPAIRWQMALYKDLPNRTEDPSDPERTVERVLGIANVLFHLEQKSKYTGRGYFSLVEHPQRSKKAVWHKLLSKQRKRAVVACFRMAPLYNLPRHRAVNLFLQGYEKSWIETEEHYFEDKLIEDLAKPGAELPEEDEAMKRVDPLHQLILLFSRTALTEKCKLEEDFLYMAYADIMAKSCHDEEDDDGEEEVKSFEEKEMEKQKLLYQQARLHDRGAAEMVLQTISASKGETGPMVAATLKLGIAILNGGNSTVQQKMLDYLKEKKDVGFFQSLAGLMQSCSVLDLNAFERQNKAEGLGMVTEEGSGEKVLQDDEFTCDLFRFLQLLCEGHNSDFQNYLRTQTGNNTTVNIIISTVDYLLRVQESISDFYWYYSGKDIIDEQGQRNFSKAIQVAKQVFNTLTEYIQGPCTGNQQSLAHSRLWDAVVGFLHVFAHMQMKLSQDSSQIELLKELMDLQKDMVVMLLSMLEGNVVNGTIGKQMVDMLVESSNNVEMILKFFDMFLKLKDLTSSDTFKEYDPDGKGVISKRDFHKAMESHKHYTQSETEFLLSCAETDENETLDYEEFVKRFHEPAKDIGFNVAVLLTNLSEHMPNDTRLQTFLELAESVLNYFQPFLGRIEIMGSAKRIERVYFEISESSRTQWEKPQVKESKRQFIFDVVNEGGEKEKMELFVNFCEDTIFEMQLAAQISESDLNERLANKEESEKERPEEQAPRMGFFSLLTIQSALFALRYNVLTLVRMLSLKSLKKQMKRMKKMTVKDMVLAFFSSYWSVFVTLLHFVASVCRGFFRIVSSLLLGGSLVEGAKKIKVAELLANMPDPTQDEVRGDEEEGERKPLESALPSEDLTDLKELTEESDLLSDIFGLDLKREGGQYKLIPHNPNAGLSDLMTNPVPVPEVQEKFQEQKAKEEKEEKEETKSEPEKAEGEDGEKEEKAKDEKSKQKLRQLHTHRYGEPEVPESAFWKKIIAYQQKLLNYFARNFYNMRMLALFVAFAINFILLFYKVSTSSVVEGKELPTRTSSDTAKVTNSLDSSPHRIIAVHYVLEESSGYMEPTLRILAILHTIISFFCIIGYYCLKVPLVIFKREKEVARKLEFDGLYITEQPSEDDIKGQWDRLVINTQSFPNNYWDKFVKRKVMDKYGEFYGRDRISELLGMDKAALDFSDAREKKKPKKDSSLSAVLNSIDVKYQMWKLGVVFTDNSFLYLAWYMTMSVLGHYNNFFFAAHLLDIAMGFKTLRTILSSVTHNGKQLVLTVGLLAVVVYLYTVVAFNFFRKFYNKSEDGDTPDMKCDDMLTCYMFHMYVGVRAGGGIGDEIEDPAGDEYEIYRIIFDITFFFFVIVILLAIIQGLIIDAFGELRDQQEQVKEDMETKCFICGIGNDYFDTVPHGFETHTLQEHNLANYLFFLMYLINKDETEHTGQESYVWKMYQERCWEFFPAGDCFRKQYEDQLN

Which “Normalized Calcium Leak” value (RyR2) does the source give for “(3R,6S,9R,12S,15R,18S,21R,24S)-3,4,9,10,15,16,21-heptamethyl-6,12,18,24-tetrapentyl-1,7,13,19-tetraoxa-4,10,16,22-tetraazacyclotetracosan-2,5,8,11,14,17,20,23-octaone [1.1]” here?
The value was 1.02 ± 0.71.

And the “Calcium spark Amplitude (normalized to vehicle)” value (RyR2)?
Its value is 1.01 ± 0.25.

And the “Calcium spark Leak (normalized to vehicle)” value (RyR2)?
The value was 1.02 ± 0.71.

And the “Calcium spark Mass (normalized to vehicle)” value (RyR2)?
Its value is 0.98 ± 0.59.

What about the “Calcium spark Frequency (normalized to vehicle)” value (RyR2) of the same substance?
Its value is 1.03 ± 0.27.

What does the source list for “(3R,6S,9R,12S,15R,18S,21R,24S)-3,4,9,15,16,21-hexamethyl-6,12,18,24-tetrapentyl-1,7,13,19-tetraoxa-4,10,16,22-tetraazacyclotetracosan-2,5,8,11,14,17,20,23-octaone [1.3]”?
Normalized Calcium Leak (RyR2): 0.90 ± 0.60; Calcium spark Amplitude (normalized to vehicle) (RyR2): 1.04 ± 0.28; Calcium spark Leak (normalized to vehicle) (RyR2): 0.90 ± 0.60; Calcium spark Mass (normalized to vehicle) (RyR2): 0.91 ± 0.48; Calcium spark Frequency (normalized to vehicle) (RyR2): 0.96 ± 0.29

For “(3R,6S,9R,12S,15R,18S,21R,24S)-3,4,7,9,10,13,15,16,19,21,22-undecamethyl-6,12,18,24-tetrapentyl-1-oxa-4,7,10,13,16,19,22-heptaazacyclotetracosan-2,5,8,11,14,17,20,23-octaone”, which ring closure, yield after HPLC ([1]; PyBOP/DIPEA, DMF, 5.0 mM) is on record?
Its ring closure, yield after HPLC is 16%.

Which ring closure, yield after HPLC ([1]; PyBOP/DIEA, DMF, 4.6 mM, 0.0 °C) does the source give for “(3S,6R,9S,12R,15S,18R,21S,24R)-1,6,7,12,13,18,19,24-Octamethyl-3,9,15,21-tetrapentyl-1,4,7,10,13,16,19,22-octaazacyclotetracosan-2,5,8,11,14,17,20,23-octaone” here?
The ring closure, yield after HPLC was 11%.

With “H-dAla-MeAhp-dMeAla-MeAhp-dMeAla-MeAhp-dMeAla-MeAhp-OH?” as the substance, how does the ring closure, yield after HPLC [1, 2] read?
The ring closure, yield after HPLC was 8%.

Which ring closure, yield after HPLC [1, 2] does the source give for “H-dMeAla-MeAhp-dMeAla-MeAhp-dMeAla-MeAhp-dMeAla-Hhp-OH?” here?
The ring closure, yield after HPLC was 16%.

With “H-dMeAla-Hhp-dMeAla-Ahp-dMeAla-Ahp-dMeAla-Ahp-OH?” as the substance, how does the ring closure, yield after HPLC [1, 2] read?
Its ring closure, yield after HPLC is 7%.

Which ring closure, yield after HPLC [1, 2] does the source give for “H-dMeAla-MeAhp-dAla-MeAhp-dMeAla-MeAhp-dAla-MeAhp-OH” here?
Its ring closure, yield after HPLC is 7%.

Which ring closure, yield after HPLC [1, 2] does the source give for “H-dMeAla-MeAhp-dAla-MeAhp-dAla-MeAhp-dAla-MeAhp-OH” here?
The ring closure, yield after HPLC was 5%.

Which ring closure, yield after HPLC [1, 2] does the source give for “H-dMeAla-Ahp-dMeAla-Hhp-dMeAla-Ahp-dMeAla-Hhp-OH” here?
The ring closure, yield after HPLC was 10%.

What does the source list for “(3R,6S,9R,12S,15R,18S,21R,24S)-3,4,9,15,21-pentamethyl-6,12,18,24-tetrapentyl-1,7,13,19-tetraoxa-4,10,16,22-tetraazacyclotetracosan-2,5,8,11,14,17,20,23-octaone [1.4]”?
Normalized Calcium Leak (RyR2): 0.77 ± 0.53; Calcium spark Amplitude (normalized to vehicle) (RyR2): 0.93 ± 0.24; Calcium spark Leak (normalized to vehicle) (RyR2): 0.77 ± 0.53; Calcium spark Mass (normalized to vehicle) (RyR2): 0.84 ± 0.32; Calcium spark Frequency (normalized to vehicle) (RyR2): 0.90 ± 0.36

With “H-dMeAla-MeAhp-dMeAla-MeAhp-dMeAla-MeAhp-dMeAla-MeAhp-OH?” as the substance, how does the ring closure, yield after HPLC [1, 2] read?
The ring closure, yield after HPLC was 8%.

With “H-dAla-MeAhp-dAla-MeAhp-dAla-MeAhp-dAla-MeAhp-OH” as the substance, how does the ring closure, yield after HPLC [1, 2] read?
The ring closure, yield after HPLC was 7%.

Which ring closure, yield after HPLC [1, 2] does the source give for “H-dMeAla-Hhp-dMeAla-Hhp-dMeAla-MeAhp-dMeAla-MeAhp-OH” here?
Its ring closure, yield after HPLC is 4%.

For “(3R,6S,9R,12S,15R,18S,21R,24S)-1,3,4,7,9,10,13,15,16,19,21-undecamethyl-6,12,18,24-tetrapentyl-1,4,7,10,13,16,19,22-octaazacyclotetracosan-2,5,8,11,14,17,20,23-octaone”, which ring closure, yield after HPLC ([1]; PyBOP/DIPEA, DMF, 4.6 mM) is on record?
The ring closure, yield after HPLC was 7.5%.

For “H-dAla-Hhp-dAla-Hhp-dMeAla-Hhp-dMeAla-Hhp-OH?”, which ring closure, yield after HPLC [1, 3] is on record?
Its ring closure, yield after HPLC is 11%.

With “H-dAla-Hhp-dAla-Hhp-dAla-Hhp-dAla-Hhp-OH” as the substance, how does the ring closure, yield after HPLC [1, 2] read?
Its ring closure, yield after HPLC is 12%.

For “H-dMeAla-MeAhp-dMeAla-Ahp-dMeAla-MeAhp-dMeAla-Ahp-OH”, which ring closure, yield after HPLC [1, 2] is on record?
The ring closure, yield after HPLC was 7%.

Which ring closure, yield after HPLC [1, 2] does the source give for “H-dMeAla-Hhp-dMeAla-Hhp-dMeAla-Hhp-dMeAla-Ahp-OH” here?
Its ring closure, yield after HPLC is 6%.

With “(3R,6S,9R,12S,15R,18S,21R,24S)-3,4,9,10,15,16,19,21,22-nonamethyl-6,12,18,24-tetrapentyl-1,7,13-trioxa-4,10,16,19,22-pentaazacyclotetracosan-2,5,8,11,14,17,20,23-octaone” as the substance, how does the ring closure, yield after HPLC ([1]; PyBOP/DIPEA, DMF, 3.6 mM) read?
The ring closure, yield after HPLC was 5.1%.

For “H-dAla-Hhp-dAla-MeAhp-dAla-Hhp-dAla-MeAhp-OH?”, which ring closure, yield after HPLC [1, 2] is on record?
The ring closure, yield after HPLC was 6%.

For “H-dAla-MeAhp-dAla-MeAhp-dMeAla-MeAhp-dMeAla-MeAhp-OH?”, which ring closure, yield after HPLC [1, 2] is on record?
Its ring closure, yield after HPLC is 8%.

Which ring closure, yield after HPLC [1, 2] does the source give for “H-dMeAla-MeAhp-dMeAla-Ahp-dMeAla-Ahp-dMeAla-Ahp-OH” here?
Its ring closure, yield after HPLC is 9%.

With “H-dAla-Hhp-dMeAla-Hhp-dMeAla-Hhp-dMeAla-Hhp-OH” as the substance, how does the ring closure, yield after HPLC [1, 3] read?
The ring closure, yield after HPLC was 18%.
